Measured values from patent publication US20130108713A1 (RYAOMA, INC., priority 2008, published 2013).

Columns and labels:
[1] = tested on: metastatic melanoma-affected patients
Experimental: The melanoma-affected patients are treated as follows. […] The treatment course spans 15 to 20 intravenous infusions. When a positive dynamic is achieved, the treatment course is followed until the pronounced effect is produced.
Along with an estimated rate of objected responses of therapeutical measures, a comparison was made between such indexes as the quality of life, endurability of therapeutic treatment, and total survivability. The study included the patients of the age period between 18-75 with histologically confirmed diagnoses of skin related melanomas. None of the patients had yet gone through chemotherapy. […] The treatment process continued to the point where the disease started progressing or side-effects developed that required the therapeutic measures to be terminated.
Dacarbazine in a dose of 2500 mg/mL was prescribed in a form of infusion that lasted sixty minutes (60 min.), once a day during successive five days, every four weeks on the 1-5 and 29-33rd days respectively. Repeated courses were carried out only in the patients whose progressing disease was not recorded.

albumin = assay: Albumin coagulation, optic density on photoelectric calorimeter; type: biochemical; conditions: for coagulation of the protein (in words): albumin solution
Experimental: In the coagulation studies, albumin was used for the protein.
In the table, the calculated concentrations of the substances being investigated are listed.
One (1) ml of the tannin solution was put into the test-tube. One (1) ml of the albumin solution was added. 5 ml of water were added. The mixture was shaken. An optic density of the solution was determined on KΦK-2(photoelectric calorimeter) when Δ=260 nm, in cuvette=1 cm in 5, 10, 15, 20, 25 min.
Each weight was repeated three times and the optical density measured.
In addition, the control experiment was conducted with 1 ml of the albumin solution, 0.001 g of potassium iodide, 5 ml of water.

[2] = reaction with PSA; cited from earlier work
[3] = treated patients, hematological side-effect

Structure (SMILES)	frequency of objective responses ([1]; melanoma patients, responses recorded in skin-based metastatic melanomas) [%]	neuropenia recorded [1, 3]	trombocytopenia recorded [1, 3]	optic density (albumin; 0.001 g of potassium iodide added to the tannin/albumin solution)	coagulation of the protein (in words) (albumin)	optic density (albumin; another 0.001 g of potassium iodide added to the tannin/albumin solution)	turbidity in the solution (albumin; control: 1 ml albumin solution, 0.001 g potassium iodide, 5 ml water, one hour later)	optic density d5 (albumin; 1 ml tannin solution + 1 ml albumin solution + 5 ml water, 260 nm, 1 cm cuvette, 5 min)	optic density d10 (albumin; same mixture, 10 min)	optic density d20 (albumin; same mixture, 20 min)	optic density d25 (albumin; same mixture, 25 min)	period of precipitation for the reaction (albumin; tannin + albumin) [min]	moles of N-acetylneuraminic acid sedimented by each mole of tannic acid [2]
CN(C)/N=N/c1[nH]cnc1C(N)=O [dacarbazine]	23	14 % of observations	57 % of the patients	–	–	–	–	–	–	–	–	–	–
[I-].[K+] [potassium iodide]	–	–	–	0.87	did not possess coagulating capacity	0.92	no turbidity	–	–	–	–	–	–
O=C(OC[C@H]1O[C@@H](OC(=O)c2cc(O)c(O)c(OC(=O)c3cc(O)c(O)c(O)c3)c2)[C@H](OC(=O)c2cc(O)c(O)c(OC(=O)c3cc(O)c(O)c(O)c3)c2)[C@@H](OC(=O)c2cc(O)c(O)c(OC(=O)c3cc(O)c(O)c(O)c3)c2)[C@@H]1OC(=O)c1cc(O)c(O)c(OC(=O)c2cc(O)c(O)c(O)c2)c1)c1cc(O)c(O)c(OC(=O)c2cc(O)c(O)c(O)c2)c1 [tannin, tannic acid]	–	–	–	–	No coagulation	–	–	0.11	0.16	0.19	0.19	20	three
